Assay results from ChEMBL document CHEMBL1155739, “New indole alkaloids from the bark of Nauclea orientalis” (J Nat Prod, 2001).
In brackets after ≈: the same amount, converted by molar mass. Activity calls are given as the source filed them. The rule behind the calls is not given here.

Key:
Candida albicans = test: (§1) Inhibition of Candida albicans secreted aspartic protease
[1] = as §1

Activity (Candida albicans) | IC50 [1] | Compound
inactive | – | C=C[C@@H]1C2=C[C@H]3c4[nH]c5ccccc5c4CCN3C(=O)C2=C(O)O[C@H]1O[C@@H]1O[C@H](CO)[C@@H](O)[C@H](O)[C@H]1O
– | 6 ng/mL (≈ 8.75 nM) | CC(C)CC(=O)N[C@H](C(=O)N[C@H](C(=O)N[C@@H](CC(C)C)[C@@H](O)CC(=O)N[C@@H](C)C(=O)N[C@@H](CC(C)C)[C@@H](O)CC(=O)O)C(C)C)C(C)C [PEPSTATIN]
